# Reference: patent US20240207292A1, “BORONIC ACID COMPOUNDS, COMPOSITIONS AND METHODS” (Trustees of Tufts College, priority 2021, published 2024)
# Columns and labels:
# recombinant human FAP = recombinant human FAP (Homo sapiens (Human), UniProt Q12884); assay: In vitro enzyme IC50 assay, FAP (Example 16); assay type: biochemical; conditions: 10 min preincubation at 25° C.; Z-Gly-Pro-AMC
# Procedure: Biological Materials: For the in vitro IC50 determination assays, recombinant human DPPIV, DPP9, FAP, and PREP were purchased from R&D Systems, and DPP8 was from Biomol International. Buffer systems used were A (25 mM Tris, pH 8.0), B (50 mM Tris, pH 7.5), C (50 mM Tris, 140 mM NaCl, pH 7.5), D (25 mM Tris, 250 mM NaCl, pH 7.5), and E (20 mM Tris, 20 mM KCl, pH 7.4). […] Substrate Specificity Assay. Peptide libraries (0.21 mM) were incubated for 24 h with 1 nM FAP in buffer E at 37° C. The reaction was quenched by the addition of 1.2 N HCl. The samples were analyzed by reverse-phase HPLC-MS on a Thermo Finnigan LCQ Duo, quantifying the peaks in the resulting base peak chromatograms. Relative cleavage values were determined by comparing the postquench abundance of intact peptides to those in the initial library.
# In Vitro Enzyme IC50 Assays. Enzymatic activity of DPPIV, DPP8, DPP9, FAP, and PREP was measured at 25° C. on a Molecular Devices M2e multidetection microtiter plate reader, monitoring the fluorescence at an excitation wavelength of 380 nm and an emission wavelength of 460 nm. The substrate was either H-Gly-Pro-AMC for the DPPIV, DPP8, and DPP9 assays or Z-Gly-Pro-AMC for the FAP and PREP assays. […] The final enzyme concentrations were 0.1, 0.8, 0.4, 1.2, and 0.6 nM for DPPIV, DPP8, DPP9, FAP, and PREP, respectively. […] Those prepared in pH 2.0 solution were preincubated at 25° C. for 4 h prior to dilution. Immediately prior to the commencement of the experiment, the 100 mM stocks were further diluted to 10^-3 M in the appropriate assay buffer, from which 1:10 serial dilutions were prepared. All inhibitors were tested in triplicate.
# [1] = Effect of NAM on stability of 6522/6555 with 50 mM AAPH at 60° C. for 60 mins as a function of pH; assay type: physicochemical; conditions: 5 mM NAM and 50 mM AAPH
# Procedure: Effect of […] N-acetyl methionine (NAM) on the stability of the compounds 6522 (6522 compound structure shown above) at 60° C. in the presence of AAPH 2,2′-azobis-(2-amidopropane)hydrochloride as a function of pH.
# • Concentration: of 6522 2 mg/mL • Reaction condition: With 5 mM NAM and 50 mM AAPH, at 60° C. for 60 mins
# [2] = Effect of N-acetyl methionine (NAM) on stability of 6522/6555 with 50 mM AAPH at 80° C. for 30 mins; assay type: physicochemical; conditions: pH 5.0, 2 mg/mL
# Procedure: Effect of N-acetyl methionine (NAM) on the stability of the compound 6522 (6522 compound structure immediately below) 80° C. in the presence of AAPH 2,2′-azobis-(2-amidopropane)hydrochloride, a free radical generator.
# • Concentration:2 mg/mL • Reaction condition: add 50 mM AAPH, at 80° C. for 30 mins
# recombinant human FAP, sequence (Q12884 whole entry): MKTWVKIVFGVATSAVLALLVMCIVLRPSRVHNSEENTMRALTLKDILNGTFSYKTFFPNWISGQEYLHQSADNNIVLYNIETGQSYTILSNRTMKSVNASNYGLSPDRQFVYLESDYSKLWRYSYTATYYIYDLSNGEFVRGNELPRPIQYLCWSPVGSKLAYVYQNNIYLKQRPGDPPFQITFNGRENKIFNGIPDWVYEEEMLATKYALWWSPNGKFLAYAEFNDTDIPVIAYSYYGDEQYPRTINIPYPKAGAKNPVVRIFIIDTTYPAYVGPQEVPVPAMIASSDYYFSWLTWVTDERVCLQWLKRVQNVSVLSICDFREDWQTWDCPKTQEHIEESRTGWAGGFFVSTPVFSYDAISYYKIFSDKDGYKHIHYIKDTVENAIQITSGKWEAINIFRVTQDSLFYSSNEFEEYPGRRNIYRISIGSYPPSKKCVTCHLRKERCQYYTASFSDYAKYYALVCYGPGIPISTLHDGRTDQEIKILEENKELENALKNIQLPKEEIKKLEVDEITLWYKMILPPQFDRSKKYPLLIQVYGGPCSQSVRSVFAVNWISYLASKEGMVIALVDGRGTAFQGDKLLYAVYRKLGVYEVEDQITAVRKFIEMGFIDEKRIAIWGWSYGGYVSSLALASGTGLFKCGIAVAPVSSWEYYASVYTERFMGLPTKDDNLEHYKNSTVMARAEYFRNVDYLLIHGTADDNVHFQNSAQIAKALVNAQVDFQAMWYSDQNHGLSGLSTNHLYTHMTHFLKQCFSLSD
compound,measurement,setting,value
"C[C@@H](NC(=O)c1ccc(CNC(=O)CN2CCN(CC(=O)O)CCN(CC(=O)O)CCN(CC(=O)O)CC2)cc1)C(=O)N1CCC[C@H]1B(O)O [compound 6555, DOTA-aminomethyl-Bz-D-Ala-boroPro]",IC50,recombinant human FAP,0.7 nM
same,6555 Remain (%),"[1]; pH 4, 2 mg/mL",76.2%
same,6555 Remain (%),"[1]; pH 5, 2 mg/mL",70.0%
same,6555 Remain (%),[2]; NAM 0 mM,64.5%
same,6555 Remain (%),[2]; NAM 10 mM,81.7%
same,6555 Remain (%),[2]; NAM 40 mM,82.9%
same,6555 Remain (%),[2]; NAM 80 mM,85.0%
same,6555 Remain (%),[2]; NAM 100 mM,85.6%
same,6555 Remain (%),[2]; NAM 200 mM,87.3%
same,6555 Remain (%),[2]; NAM 400 mM,90.2%
